From the NIST ThermoML archive (doi:10.1016/j.jct.2011.03.013)
Values joined by “and” are separate entries in the source; they are usually repeats but may differ in a detail not shown here. Equal entries are not always repeated.

Settings: Crystal; for vapor or sublimation pressure: Calculated from knudsen effusion weight loss; for molar enthalpy of sublimation: 298.15 K, Drop Calorimetry

N#Cc1ccc2ccccc2c1 [2-naphthalenecarbonitrile]
Settings	molar enthalpy of sublimation [kcal/mol]	vapor or sublimation pressure
–	21.7	–
296.18 K	–	9e-05 kPa and 9.2e-05 kPa and 9.1e-05 kPa
298.11 K	–	0.000115 kPa and 0.000117 kPa and 0.000116 kPa
300.19 K	–	0.000159 kPa and 0.000153 kPa and 0.000154 kPa
302.18 K	–	0.000196 kPa and 0.000201 kPa and 0.000197 kPa
304.1 K	–	0.000245 kPa and 0.000244 kPa
306.18 K	–	0.000319 kPa and 0.000303 kPa and 0.000304 kPa
308.15 K	–	0.000391 kPa and 0.000388 kPa and 0.000396 kPa
310.09 K	–	0.000487 kPa and 0.000485 kPa and 0.000491 kPa
312.19 K	–	0.000636 kPa and 0.000617 kPa and 0.000618 kPa
314.16 K	–	0.000783 kPa and 0.000762 kPa and 0.000803 kPa
316.1 K	–	0.000948 kPa and 0.000947 kPa and 0.000994 kPa

N#Cc1cccc2ccccc12 [1-cyanonaphthalene]
Settings	molar enthalpy of sublimation [kcal/mol]	vapor or sublimation pressure
–	21.1	–
289.1 K	–	0.00012 kPa and 0.000125 kPa
291.12 K	–	0.000163 kPa and 0.000156 kPa and 0.000157 kPa
293.12 K	–	0.000208 kPa and 0.0002 kPa and 0.000196 kPa
295.12 K	–	0.000275 kPa and 0.000251 kPa and 0.000265 kPa
297.13 K	–	0.000324 kPa and 0.000319 kPa
299.13 K	–	0.000426 kPa and 0.000418 kPa and 0.000416 kPa
301.12 K	–	0.000535 kPa and 0.000532 kPa and 0.000527 kPa
303.3 K	–	0.000724 kPa and 0.00069 kPa and 0.000686 kPa
305.12 K	–	0.000843 kPa and 0.000849 kPa and 0.00084 kPa
307 K	–	0.001033 kPa and 0.001044 kPa and 0.001034 kPa
